Reference: ChEMBL document CHEMBL1201862, “PubChem BioAssay data set” (2004)
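Briefly, cells in 96-well plates were exposed to five compound concentrations for 48 h, and endpoints were estimated by linear interpolation. GI50 = concentration required for 50% inhibition of growth.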 The source made the active and inactive calls. No stated cut-off is given here; in the data, active = GI50 up to about 1.1 µM and inactive = higher.

Tests used:
Assay in all cases: NCI anticancer screen, dose series, 48 h
786-0 = test system: 786-0
A498 = test system: A498
ACHN = test system: ACHN
BT-549 = test system: BT-549
CAKI-1 = test system: CAKI-1
CCRF-CEM = test system: CCRF-CEM
COLO 205 = test system: COLO 205
DU-145 = test system: DU-145
EKVX = test system: EKVX
HCC 2998 = test system: HCC 2998
HCT-116 = test system: HCT-116
HCT-15 = test system: HCT-15
HL-60 = test system: HL-60
HOP-62 = test system: HOP-62
HOP-92 = test system: HOP-92
Hs-578T = test system: Hs-578T
IGROV-1 = test system: IGROV-1
K562 = test system: K562
KM12 = test system: KM12
LOX IMVI = test system: LOX IMVI
M14 = test system: M14
MCF7 = test system: MCF7
MDA-MB-231 = test system: MDA-MB-231
MDA-MB-435 = test system: MDA-MB-435
MDA-N = test system: MDA-N
MOLT-4 = test system: MOLT-4
NCI-H226 = test system: NCI-H226
NCI-H23 = test system: NCI-H23
NCI-H460 = test system: NCI-H460
NCI-H522 = test system: NCI-H522
NCI/ADR-RES = test system: NCI/ADR-RES
OVCAR-3 = test system: OVCAR-3
OVCAR-4 = test system: OVCAR-4
OVCAR-5 = test system: OVCAR-5
OVCAR-8 = test system: OVCAR-8
PC-3 = test system: PC-3
RPMI-8226 = test system: RPMI-8226
RXF 393 = test system: RXF 393
SF-268 = test system: SF-268
SF-295 = test system: SF-295
SF-539 = test system: SF-539
SK-MEL-2 = test system: SK-MEL-2
SK-MEL-5 = test system: SK-MEL-5
SK-OV-3 = test system: SK-OV-3
SN12C = test system: SN12C
SNB-19 = test system: SNB-19
SNB-75 = test system: SNB-75
SR = test system: SR
SW-620 = test system: SW-620
T47D = test system: T47D
TK-10 = test system: TK-10
U-251 = test system: U-251
UACC-257 = test system: UACC-257
UACC-62 = test system: UACC-62
UO-31 = test system: UO-31
A549 = test system: A549
HT-29 = test system: HT-29
Malme-3M = test system: Malme-3M
SK-MEL-28 = test system: SK-MEL-28

Measured: GI50

O=C1CSC2=NC3=C(COC/C3=C\c3ccc(Br)cc3)C(c3ccc(Br)cc3)N12 (configuration not stated)
inactive: 786-0 83.6 µM | A498 > 100 µM | ACHN 82.8 µM | BT-549 > 100 µM | CAKI-1 > 100 µM | CCRF-CEM 17.6 µM | COLO 205 58.7 µM | DU-145 > 100 µM | EKVX > 100 µM | HCC 2998 > 100 µM | HCT-116 40.2 µM | HL-60 12.9 µM | HOP-62 > 100 µM | HOP-92 > 100 µM | Hs-578T > 100 µM | IGROV-1 98.6 µM | K562 28.9 µM | KM12 29.1 µM | LOX IMVI 53.6 µM | M14 28.8 µM | MCF7 44.4 µM | MDA-MB-231 > 100 µM | MDA-MB-435 49 µM | MDA-N 43 µM | MOLT-4 15.2 µM | NCI-H226 > 100 µM | NCI-H23 90.6 µM | NCI-H460 51.2 µM | NCI-H522 3.92 µM | NCI/ADR-RES 31.8 µM | OVCAR-3 61 µM | OVCAR-4 > 100 µM | OVCAR-5 > 100 µM | OVCAR-8 74.6 µM | PC-3 41.8 µM | RPMI-8226 20.9 µM | RXF 393 37.8 µM | SF-268 > 100 µM | SF-295 55.7 µM | SF-539 > 100 µM | SK-MEL-2 > 100 µM | SK-MEL-5 96.4 µM | SK-OV-3 > 100 µM | SN12C > 100 µM | SNB-19 > 100 µM | SNB-75 70.5 µM | SR 15.3 µM | SW-620 52.4 µM | T47D 53.2 µM | TK-10 97.9 µM | U-251 66.5 µM | UACC-257 > 100 µM | UACC-62 > 100 µM | UO-31 35.3 µM
52.6 µM: HCT-15

COc1ccccc1/C=C/C1=NN(c2cccc(S(=O)(=O)O)c2)C2(C1)SCC(=O)N2c1nc2ccccc2s1 (configuration not stated)
inactive: 786-0 > 100 µM | A498 83.4 µM | A549 84.3 µM | ACHN 55.7 µM | BT-549 56.1 µM | CAKI-1 > 100 µM | CCRF-CEM 23 µM | COLO 205 67.8 µM | DU-145 89.7 µM | EKVX 68.2 µM | HCC 2998 60.3 µM | HCT-116 > 100 µM | HL-60 50.2 µM | HOP-92 23.3 µM | HT-29 97.9 µM | Hs-578T > 100 µM | IGROV-1 21.4 µM | K562 36.2 µM | KM12 41.1 µM | LOX IMVI 53.5 µM | M14 > 100 µM | MCF7 44.6 µM | MDA-MB-231 > 100 µM | MDA-MB-435 > 100 µM | MDA-N > 100 µM | MOLT-4 36.7 µM | Malme-3M > 100 µM | NCI-H226 31.7 µM | NCI-H23 30.3 µM | NCI-H460 61.9 µM | NCI-H522 36.7 µM | NCI/ADR-RES > 100 µM | OVCAR-4 86.7 µM | OVCAR-5 > 100 µM | OVCAR-8 53.2 µM | PC-3 70.1 µM | RPMI-8226 23.6 µM | RXF 393 > 100 µM | SF-268 > 100 µM | SF-539 > 100 µM | SK-MEL-28 > 100 µM | SK-MEL-2 > 100 µM | SK-MEL-5 64.4 µM | SN12C > 100 µM | SNB-19 > 100 µM | SNB-75 > 100 µM | SR 24.5 µM | SW-620 > 100 µM | T47D 20.4 µM | TK-10 84.3 µM | U-251 52.6 µM | UACC-257 97.7 µM | UACC-62 53.8 µM | UO-31 71.9 µM
67.9 µM: HCT-15

CCN(CC)C(=S)SNc1ccc(S(N)(=O)=O)cc1
active: HL-60 0.064 µM | MCF7 0.0383 µM | MOLT-4 0.789 µM | NCI-H522 0.0755 µM
inactive: 786-0 29.9 µM | A498 > 100 µM | A549 74.6 µM | ACHN 45.1 µM | BT-549 67.8 µM | CAKI-1 36.8 µM | COLO 205 68.7 µM | DU-145 > 92.9 µM | EKVX > 100 µM | HCC 2998 > 100 µM | HCT-116 47.3 µM | HOP-62 69.8 µM | HOP-92 > 56.2 µM | HT-29 24.6 µM | Hs-578T > 100 µM | IGROV-1 2.11 µM | K562 > 100 µM | KM12 > 71.6 µM | LOX IMVI 38.9 µM | M14 24.5 µM | MDA-MB-231 60.5 µM | MDA-MB-435 > 57.7 µM | MDA-N 69.3 µM | Malme-3M 42.1 µM | NCI-H226 > 100 µM | NCI-H23 > 100 µM | NCI-H460 38.7 µM | NCI/ADR-RES > 83.6 µM | OVCAR-4 > 83 µM | OVCAR-5 28.4 µM | OVCAR-8 23.3 µM | PC-3 47.8 µM | RPMI-8226 20.2 µM | RXF 393 44.4 µM | SF-268 > 75.7 µM | SF-295 > 66.5 µM | SF-539 > 76.6 µM | SK-MEL-28 33.4 µM | SK-MEL-2 > 63.1 µM | SK-MEL-5 30.5 µM | SK-OV-3 > 100 µM | SN12C 68.1 µM | SNB-19 > 83.4 µM | SNB-75 > 72.9 µM | SR 33.2 µM | SW-620 13.7 µM | T47D 91.6 µM | TK-10 > 100 µM | U-251 50.4 µM | UACC-257 > 100 µM | UACC-62 > 100 µM | UO-31 33.2 µM
> 77.4 µM: HCT-15
